This note sets out measurements from EP3807270B1, “NOVEL HETEROARYL HETEROCYCLYL COMPOUNDS FOR THE TREATMENT OF AUTOIMMUNE DISEASE” (F. Hoffmann-La Roche AG, priority 2018, dated 2019).

The structures appear in SMILES notation.

The test addresses T1, hTLR7 (Homo sapiens, UniProt Q9NYK1).
T1 sequence (Q9NYK1 27-1049): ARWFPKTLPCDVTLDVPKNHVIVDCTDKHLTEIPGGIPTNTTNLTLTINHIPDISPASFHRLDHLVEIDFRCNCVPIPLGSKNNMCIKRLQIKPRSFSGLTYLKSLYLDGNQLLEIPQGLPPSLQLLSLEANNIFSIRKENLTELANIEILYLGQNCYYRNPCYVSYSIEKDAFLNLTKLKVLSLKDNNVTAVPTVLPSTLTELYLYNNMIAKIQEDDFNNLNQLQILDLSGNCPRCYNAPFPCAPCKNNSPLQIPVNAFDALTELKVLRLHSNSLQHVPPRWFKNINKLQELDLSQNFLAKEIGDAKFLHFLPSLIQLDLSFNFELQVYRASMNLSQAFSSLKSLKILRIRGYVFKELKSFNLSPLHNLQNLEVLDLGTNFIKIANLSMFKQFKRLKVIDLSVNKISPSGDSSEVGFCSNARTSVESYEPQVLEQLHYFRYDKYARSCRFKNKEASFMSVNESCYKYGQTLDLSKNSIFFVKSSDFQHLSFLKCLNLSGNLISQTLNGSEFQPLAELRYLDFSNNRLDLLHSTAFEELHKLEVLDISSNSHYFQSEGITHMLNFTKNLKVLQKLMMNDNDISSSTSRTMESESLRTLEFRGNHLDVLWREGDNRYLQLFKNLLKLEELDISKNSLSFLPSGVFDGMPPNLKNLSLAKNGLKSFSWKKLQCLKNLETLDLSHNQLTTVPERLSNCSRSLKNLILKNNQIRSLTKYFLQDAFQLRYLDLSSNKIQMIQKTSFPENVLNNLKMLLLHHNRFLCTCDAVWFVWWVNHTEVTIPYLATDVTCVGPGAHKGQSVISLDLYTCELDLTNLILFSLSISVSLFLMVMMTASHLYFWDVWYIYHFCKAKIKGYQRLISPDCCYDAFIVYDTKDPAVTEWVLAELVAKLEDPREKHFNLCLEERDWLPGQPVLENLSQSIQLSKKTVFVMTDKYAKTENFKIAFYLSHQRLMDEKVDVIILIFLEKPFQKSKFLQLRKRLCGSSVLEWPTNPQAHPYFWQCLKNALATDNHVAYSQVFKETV
Kind of test: HEK293-Blue-hTLR-7 cells assay (SEAP reporter, R848 stimulation). The conditions noted are these: HEK293-Blue-hTLR7 cells, R848, 20 hrs; read-out: HEK/hTLR7 IC50. In kind it is cell-based. The arrangement: host or cells: HEK293 (HEK-Blue). The source says:
A stable HEK293-Blue-hTLR-7 cell line was purchased from InvivoGen (Cat.#: hkb-htlr7, San Diego, California, USA). These cells were originally designed for studying the stimulation of human TLR7 by monitoring the activation of NF-κB. A SEAP (secreted embryonic alkaline phosphatase) reporter gene was placed under the control of the IFN-β minimal promoter fused to five NF-κB and AP-1-binding sites. The SEAP was induced by activating NF-xB and AP-1 via stimulating HEK-Blue hTT,R7 cells with TLR7 ligands. Therefore, the reporter expression was declined by TLR7 antagonist under the stimulation of a ligand, such as R848 (Resiquimod), for incubation of 20 hrs. The cell culture supernatant SEAP reporter activity was determined using QUANTI-Blue™ kit (Cat.#: rep-qb1, Invivogen, San Diego, Ca, USA) at a wavelength of 640 nm, a detection medium that turns purple or blue in the presence of alkaline phosphatase.
HEK293-Blue-hTLR7 cells were incubated at a density of 250,000-450,000 cells/mL in a volume of 170 µL in a 96-well plate in Dulbecco's Modified Eagle's medium (DMEM) containing 4.5 g/L glucose, 50 U/mL penicillin, […], […], 2 mM L-glutamine, 10% (v/v) heat-inactivated fetal bovine serum with addition of 20 µL test compound in a serial dilution in the presence of final DMSO at 1% and 10 µL of 20uM R848 in above DMEM, perform incubation under 37 °C in a CO2 incubator for 20 hrs. Then 20 µL of the supernatant from each well was incubated with 180 µL Quanti-blue substrate solution at 37 °C for 2 hrs and the absorbance was read at 620-655 nm using a spectrophotometer. The signaling pathway that TLR7 activation leads to downstream NF-xB activation has been widely accepted, and therefore similar reporter assay was modified for evaluating TLR7 antagonist.

For the molecule `C[C@@H]1CN(c2ccc(C#N)c3ncccc23)C[C@H](CN2CCN(c3cc4c(cn3)CNCC4)CC2)O1` [Example 19, 5-[(2R,6S)-2-methyl-6-[[4-(5,6,7,8-tetrahydro-2,7-naphthyridin-3-yl)piperazin-1-yl]methyl]morpholin-4-yl]quinoline-8-carbonitrile], the IC50 came out at 9 nM.
On to `C[C@@H]1CN(c2ccc(C#N)c3ncccc23)C[C@H](CN2CC3(C2)CN(c2ccc4c(c2)CCNC4)CCO3)O1` [Example 44, 5-[(2R,6S)-2-methyl-6-[[8-(1,2,3,4-tetrahydroisoquinolin-6-yl)-5-oxa-2,8-diazaspiro[3.5]nonan-2-yl]methyl]morpholin-4-yl]quinoline-8-carbonitrile], for which the IC50 is 11 nM.
With `C[C@@H]1CN(c2ccc(C#N)c3ncccc23)C[C@H](CN2CCC(Nc3ncc4c(n3)CNC4)C2)O1` (stereo partly drawn) [Example 32, 5-[(2S,6R)-2-[[3-(6,7-dihydro-5H-pyrrolo[3,4-d]pyrimidin-2-ylamino)pyrrolidin-1-yl]methyl]-6-methyl-morpholin-4-yl]quinoline-8-carbonitrile] the figure was 69 nM; with `C[C@@H]1CN(c2ccc(C#N)c3ncccc23)C[C@H](CN2CC3(CCN3c3ccc4c(n3)CCNC4)C2)O1` [Example 36, 5-[(2R,6S)-2-methyl-6-[[1-(5,6,7,8-tetrahydro-1,6-naphthyridin-2-yl)-1,6-diazaspiro[3.3]heptan-6-yl]methyl]morpholin-4-yl]quinoline-8-carbonitrile], 26 nM; with `C[C@@H]1Cc2cc(N3CCN(C[C@H]4CN(c5ccc(C#N)c6ncccc56)C[C@@H](C)O4)CC3)ncc2CN1` (single isomer, unassigned) [Example 70], 26 nM.
With `C[C@@H]1CN(c2ccc(C#N)c3ncccc23)C[C@H](CN2CCN(c3ccc4c(c3)CCNC4)CC2)O1` [Example 5, 5-[(2R,6S)-2-methyl-6-[[4-(1,2,3,4-tetrahydroisoquinolin-6-yl)piperazin-1-yl]methyl]morpholin-4-yl]quinoline-8-carbonitrile] the figure was 31 nM.
With `C[C@@H]1CN(c2ccc(C#N)c3ncccc23)C[C@H](CN2CCN(c3cc4c(cn3)CCNC4)CC2)O1` [Example 20, 5-[(2R,6S)-2-methyl-6-[[4-(5,6,7,8-tetrahydro-2,6-naphthyridin-3-yl)piperazin-1-yl]methyl]morpholin-4-yl]quinoline-8-carbonitrile] the figure was 8 nM; with `C[C@@H]1CN(c2ccc(C#N)c3ncccc23)C[C@H](CN2CCN(c3ccc4c(c3)CCNC4CO)CC2)O1` (stereo partly drawn) [Example 24, 5-[(2S,6R)-2-[[4-[1-(hydroxymethyl)-1,2,3,4-tetrahydroisoquinolin-6-yl]piperazin-1-yl]methyl]-6-methyl-morpholin-4-yl]quinoline-8-carbonitrile], 32 nM; with `C[C@@H]1CN(c2ccc(C#N)c3ncccc23)C[C@H](CN2CCN(c3ccc4c(n3)CN[C@@H]4C)CC2)O1` (single isomer, unassigned) [Example 64], 12 nM.
Consider `C[C@@H]1CN(c2ccc(C#N)c3ncccc23)C[C@H](CN2CCN(c3cc4c(cn3)CCN[C@H]4C)CC2)O1` (single isomer, unassigned) [Example 75], for which the IC50 is 8 nM.
With `C[C@@H]1CN(c2ccc(C#N)c3ncccc23)C[C@H](CN2C[C@H]3CN(c4ccc5c(n4)CCNC5)CC[C@@H]32)O1` (single isomer, unassigned) [Example 54] the figure was 6 nM; with `C[C@@H]1CN(c2ccc(C#N)c3ncccc23)C[C@H](CN2CCN(c3ccc4c(c3)CNC4)[C@@H](CO)C2)O1` [Example 4, 5-[(2S,6R)-2-[[(3R)-3-(hydroxymethyl)-4-isoindolin-5-yl-piperazin-1-yl]methyl]-6-methyl-morpholin-4-yl]quinoline-8-carbonitrile], 64 nM; with `C[C@@H]1CN(c2ccc(C#N)c3ncccc23)C[C@H](CN2CCC(Nc3ccc4c(c3)CNC4)C2)O1` (stereo partly drawn) [Example 38, 5-[(2S,6R)-2-[[3-(isoindolin-5-ylamino)pyrrolidin-1-yl]methyl]-6-methyl-morpholin-4-yl]quinoline-8-carbonitrile], 65 nM.
With `C[C@@H]1CN(c2ccc(C#N)c3ncccc23)C[C@H](CN2CCN(c3ccc4c(n3)CCN(C)C4)CC2)O1` [Example 34, 5-[(2R,6S)-2-methyl-6-[[4-(6-methyl-7,8-dihydro-5H-1,6-naphthyridin-2-yl)piperazin-1-yl]methyl]morpholin-4-yl]quinoline-8-carbonitrile] the figure was 18 nM; with `C[C@@H]1Cc2cnc(N3CCN(C[C@H]4CN(c5ccc(C#N)c6ncccc56)C[C@@H](C)O4)CC3)cc2CN1` (single isomer, unassigned) [Example 77], 11 nM; with `C[C@@H]1CN(c2ccc(C#N)c3nccnc23)C[C@H](CN2CCN(c3cnc4c(c3)CNC4)CC2)O1` [Example 25, 8-[(2S,6R)-2-[[4-(6,7-dihydro-5H-pyrrolo[3,4-b]pyridin-3-yl)piperazin-1-yl]methyl]-6-methyl-morpholin-4-yl] quinoxaline-5-carbonitrile], 19 nM.
In the case of `C[C@@H]1CN(c2ccc(C#N)c3ncccc23)C[C@H](CN2CCCN(c3nc4c(s3)CNCC4)CC2)O1` [Example 33, 5-[(2R,6S)-2-methyl-6-[[4-(4,5,6,7-tetrahydrothiazolo[5,4-c]pyridin-2-yl)-1,4-diazepan-1-yl]methyl]morpholin-4-yl]quinoline-8-carbonitrile], the IC50 came to 17 nM.
As to `C[C@@H]1CN(c2ccc(C#N)c3ncccc23)C[C@H](CN2CCN(c3nc4c(s3)CNCC4)CC2)O1` [Example 31, 5-[(2R,6S)-2-methyl-6-[[4-(4,5,6,7-tetrahydrothiazolo[5,4-c]pyridin-2-yl)piperazin-1-yl]methyl]morpholin-4-yl]quinoline-8-carbonitrile], the IC50 came to 11 nM.
Take `C[C@@H]1CN(c2ccc(C#N)c3ncccc23)C[C@H](CN2CC3(C2)CN(c2cnc4c(c2)CCNC4)CCO3)O1` [Example 46, 5-[(2R,6S)-2-methyl-6-[[8-(5,6,7,8-tetrahydro-1,7-naphthyridin-3-yl)-5-oxa-2,8-diazaspiro[3.5]nonan-2-yl]methyl]morpholin-4-yl]quinoline-8-carbonitrile]: the IC50 worked out at 12 nM.
As for `C[C@@H]1CN(c2ccc(C#N)c3ncccc23)C[C@H](CN2CC3(C2)CN(c2ncc4c(n2)CCNC4)CCO3)O1` [Example 51, 5-[(2R,6S)-2-methyl-6-[[8-(5,6,7,8-tetrahydropyrido[4,3-d]pyrimidin-2-yl)-5-oxa-2,8-diazaspiro[3.5]nonan-2-yl]methyl]morpholin-4-yl]quinoline-8-carbonitrile], the IC50 amounted to 12 nM.
As for `C[C@@H]1CN(c2ccc(C#N)c3ncccc23)C[C@H](CN2CC3(C2)CN(c2ccc4c(n2)CNCC4)CCO3)O1` [Example 45, 5-[(2R,6S)-2-methyl-6-[[8-(5,6,7,8-tetrahydro-1,7-naphthyridin-2-yl)-5-oxa-2,8-diazaspiro[3.5]nonan-2-yl]methyl]morpholin-4-yl]quinoline-8-carbonitrile], the IC50 turned out to be 9 nM.
